Laboratory results: ChEMBL document CHEMBL1201862, “PubChem BioAssay data set” (2004)
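Tested at 5 concentrations; 48 h exposure; 96-well plates; endpoints linearly interpolated, else capped at highest concentration. GI50 = concentration required for 50% inhibition of growth.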 Active and inactive are the calls of the source. No stated cut-off is given here; in the data, active = GI50 up to about 1.1 µM and inactive = higher. Starred links: 1 amine or outer side, 2 acyl side, 3 side chain; linkers in the order of their positions; H or OH if unused. Positions of bridges follow the written chain, without caps; N, C: chain ends. Non-standard residues stand in square brackets, D forms with d. Residues, ends and D or L forms follow the SMILES beside them. Chains are numbered I, II in the order given. *: point of attachment. Actinocin(9to1) = Cc1c2oc3c(C)ccc(C(=O)[*:1])c3nc-2c(C(=O)[*:2])c(N)c1=O; NMeV = CN[CH](C(=O)O)C(C)C; Ac5c = NC1(C(=O)O)CCCC1; Cbz = O=C(OCc1ccccc1)*; Boc = CC(C)(C)OC(=O)*; Sar = CNCC(=O)O; tBu = CC(C)(C)*

Legend:
Assay in all cases: NCI-60 cell line screen, 48 h
[1] = system: MDA-MB-231
[2] = system: T47D
[3] = system: XF498
[4] = system: KM-20L2
[5] = system: SNB-78
[6] = system: HOP-18
[7] = system: DMS-114
[8] = system: BT-549

`COc1c(C(=O)/C(=N/Nc2cccc(Cl)c2)C(C)=O)c(O)c(OC)c2occc12` was tested, and the GI50 [1] was 73.6 µM (inactive) and the GI50 [2] was 50.8 µM (inactive).

With `CC(C)(O)[C@H](CCO)O[Si](c1ccccc1)(c1ccccc1)C(C)(C)C` the GI50 [3] was 8.18 µM (inactive), the GI50 [4] was 11.2 µM (inactive) and the GI50 [5] was 15 µM (inactive). For the same compound, the GI50 [6] was 3.1 µM (inactive).

For `NNc1nnc(-c2ccccc2)nc1Cc1ccccc1`, the GI50 [3] was 7.41 µM (inactive), the GI50 [4] was 3.84 µM (inactive) and the GI50 [6] was 2.03 µM (inactive). The GI50 [7] was 3.17 µM (inactive).

In the case of `COc1ccc(/C(Cl)=C(\C=O)c2ccccc2)cc1OC`, the GI50 [4] is reported as 44 µM (inactive), the GI50 [5] is reported as 16.7 µM (inactive) and the GI50 [6] is reported as 30.1 µM (inactive). For the same compound, the GI50 [7] was 13.1 µM (inactive).

For `COCC1OC(OC2C3=C(C(C)C)CCC3(C)/C=C3\C(CCC3(O)COC)C(C)C2O)C(O)C2OC3OC12OC3(C)C1CO1` (stereo not given), the GI50 [1] was 50.9 µM (inactive), the GI50 [2] was 29.4 µM (inactive) and the GI50 [8] was 16.6 µM (inactive).

In the case of `C=C1CC(C)(COc2ccc3ccc(=O)oc3c2)OC1=O` (stereo not given), the GI50 [1] is reported as 8.28 µM (inactive), the GI50 [2] is reported as 3.66 µM (inactive) and the GI50 [8] is reported as 1.02 µM (active).

For `O=c1c2ccccc2nc(-c2ccccc2)n1NC(=S)Nc1ccccc1`, the GI50 [6] was > 100 µM (inactive) and the GI50 [7] was 14.3 µM (inactive).

In the case of `COc1cc2c(cc1OC)C1C(O)C(OC)C(Br)C3(Br)CCN(C2)C13` (stereo not given), the GI50 [1] is reported as > 100 µM (inactive), the GI50 [2] is reported as 84.1 µM (inactive) and the GI50 [8] is reported as > 100 µM (inactive).

For `CCOC(=O)Cn1nnc2cc(Nc3c(C)[n+]([O-])c4cc(F)c(OCC)cc4[n+]3[O-])ccc21`, the GI50 [1] was 27.1 µM (inactive) and the GI50 [2] was > 100 µM (inactive).

In the case of `Cn1c(CO)ccc1-c1ccc(-c2ccc(CO)[se]2)[se]1`, the GI50 [1] is reported as 21.2 µM (inactive), the GI50 [2] is reported as 11.9 µM (inactive) and the GI50 [8] is reported as 11.1 µM (inactive).

In the case of `Cn1c(=O)n(C2(C)C[Se]C2)c2ccccc21`, the GI50 [4] is reported as > 100 µM (inactive) and the GI50 [5] is reported as > 100 µM (inactive).

For `CC(C)CC(C(N)=O)C(=O)NC(Cc1ccccc1)NC(=O)CNC(=O)C(C)NC(=O)C(N)Cc1ccc(O)cc1` (stereo not given), the GI50 [1] was > 100 µM (inactive), the GI50 [2] was > 100 µM (inactive) and the GI50 [8] was > 100 µM (inactive).

`O=C1CCc2ccc3c(c21)CC1(Cc2ccccc2C1)C3` was tested, and the GI50 [1] was 4.45 µM (inactive), the GI50 [2] was 8.55 µM (inactive) and the GI50 [8] was 10 µM (inactive).

For `O=S(=O)(Cc1nc2ccccc2s1)c1nc2ccccc2s1`, the GI50 [1] was 17.1 µM (inactive), the GI50 [2] was 21.3 µM (inactive) and the GI50 [8] was 16.5 µM (inactive).

In the case of `C=C1C(=O)O[C@@]23C1CC[C@@H](C)C2CC[C@@]1(C)OC31` (stereo not given in full), the GI50 [2] is reported as 4.03 µM (inactive) and the GI50 [8] is reported as 7.71 µM (inactive).

`CC(=O)OC(C)(C)CCC(=O)[C@](C)(O)[C@H]1[C@H](O)C[C@@]2(C)[C@@H]3CC=C4C(C)=C(OC5OC(CO)C(O)C(O)C5O)C(=O)C[C@@H]4[C@]3(C)C(=O)C[C@]12C` (stereo not given in full) was tested, and the GI50 [1] was > 100 µM (inactive), the GI50 [2] was > 100 µM (inactive) and the GI50 [8] was > 100 µM (inactive).

With `CC(=O)c1ccc(NCN2C(=O)c3ccccc3C2=O)cc1` the GI50 [1] was > 100 µM (inactive), the GI50 [2] was > 100 µM (inactive) and the GI50 [8] was > 100 µM (inactive).

In the case of `CCOC(=O)C1C(=O)C=C(c2cc(C)ccc2O)CC1c1cccc(Cl)c1` (stereo not given), the GI50 [1] is reported as 23.9 µM (inactive), the GI50 [2] is reported as 36.1 µM (inactive) and the GI50 [8] is reported as 44.6 µM (inactive).

With `COc1cc2c(cc1OCCCC(=O)Nc1cc(C(=O)Nc3cc(C(=O)Nc4cc(C(=O)NCCCN(C)C)n(C)n4)n(C)c3)n(C)c1)N=CC1CCCN1C2=O` (stereo not given) the GI50 [1] was 34.5 µM (inactive), the GI50 [2] was 48.5 µM (inactive) and the GI50 [8] was 22.1 µM (inactive).

For `CC(=O)/C=C/C1=C(C)CCCC1(C)CC(C)C` (stereo not given), the GI50 [1] was 70.8 µM (inactive) and the GI50 [2] was 15.3 µM (inactive).

`O=C(O)NC(c1ccccc1)C(NC(=O)c1ccccc1)c1ccccc1` (stereo not given) was tested, and the GI50 [3] was > 100 µM (inactive), the GI50 [4] was > 100 µM (inactive) and the GI50 [5] was > 100 µM (inactive). The GI50 [6] was > 100 µM (inactive) and the GI50 [7] was > 100 µM (inactive).

`COc1ccc2ccccc2c1/C=C/C(=O)c1ccccc1` was tested, and the GI50 [1] was 2.66 µM (inactive), the GI50 [2] was 2.43 µM (inactive) and the GI50 [8] was 2.96 µM (inactive).

In the case of `C=C1C(=O)O[C@H]2C1C[C@H](O)[C@@]1(C)OC1CC[C@@]1(C)O[C@H]21` (stereo not given in full), the GI50 [2] is reported as 19.3 µM (inactive) and the GI50 [8] is reported as 13.8 µM (inactive).

For `C=C1C(=O)O[C@@H]2OC3(C)CCC4C(C)CCC1C42OO3` (stereo not given in full), the GI50 [3] was 2.16 µM (inactive) and the GI50 [6] was 16.5 µM (inactive).

With `NS(=O)(=O)c1ccc(-n2c(-c3cccs3)nc3ccc(I)cc3c2=O)cc1` the GI50 [8] was 16.3 µM (inactive).

In the case of `COc1ccc(-c2oc3cc(OC(C)=O)cc(OC(C)=O)c3c(=O)c2OC)cc1`, the GI50 [1] is reported as 22 µM (inactive) and the GI50 [2] is reported as 19.7 µM (inactive).

In the case of `COC(=O)C1(NC(=O)C(Cc2ccccc2)NC(=O)C(NC(=O)C(CCCCNC(=O)OC(C)(C)C)NC(=O)C(Cc2c[nH]c3ccccc23)NC(=O)C(Cc2ccccc2)NC(=O)OCc2ccccc2)C(C)OC(C)(C)C)CCCC1` (stereo not given) (Cbz-FWK(Boc)T(tBu)F[Ac5c]-OMe; configuration not given here), the GI50 [1] is reported as 25.9 µM (inactive) and the GI50 [2] is reported as 24.6 µM (inactive).

With `Cc1c2oc3c(C)ccc(C(=O)NC4C(=O)NC(Cc5ccc(O)cc5)C(=O)N5CCCC5C(=O)N(C)CC(=O)N(C)C(C(C)C)C(=O)OC4C)c3nc-2c(C(=O)NC2C(=O)NC(Cc3ccc(O)cc3)C(=O)N3CCCC3C(=O)N(C)CC(=O)N(C)C(C(C)C)C(=O)OC2C)c(N)c1=O` (stereo not given) (I: TYP[Sar][NMeV] / II: TYP[Sar][NMeV]; ester I:1-I:C, II:1-II:C; linker I:N-II:N via Actinocin(9to1); configuration not given here) the GI50 [1] was 15.6 µM (inactive) and the GI50 [2] was 1.36 µM (inactive).

With `NC(CCCCCP(=O)(O)O)C(=O)O` (stereo not given) [AP-7] the GI50 [1] was > 100 µM (inactive), the GI50 [2] was 83.8 µM (inactive) and the GI50 [8] was > 100 µM (inactive).

For `Nc1ccccc1NC(=O)c1ccc(CNC(=O)OCc2cccnc2)cc1` [ENTINOSTAT], the GI50 [1] was 2.1 µM (inactive), the GI50 [2] was 0.708 µM (active) and the GI50 [8] was 3.5 µM (inactive).

In the case of `CC1CC(C)(O)CC(C(O)CC2CC(=O)NC(=O)C2)C1=O` (stereo not given) [RESACTIN A], the GI50 [1] is reported as < 0.01 µM (active), the GI50 [2] is reported as 0.0431 µM (active) and the GI50 [8] is reported as 0.113 µM (active).
